Data as given in patent EP3353259B1, “SILYL MODIFIED POLYMER SEALANT” (Strongbond B.V., priority 2015, dated 2017).

Test: Oxidation resistance of MS-kit with dodecylsulfide (comparative example 2a-d)
Assay type: physicochemical
Details: up to 5% added to a standard mix with and without Irganox 1135, compared to standard mixture without dodecylsulfide
Procedure: Up to 5% dodecylsulfide was added to a standard mix with and without Irganox 1135. No change in oxidation resistance was found compared to the standard mixture with or without Irganox 1135 not containing dodecylsulfide.

Structure (SMILES) | oxidation resistance
CCCCCCCCCCCCSCCCCCCCCCCCC [dodecylsulfide] | No change

Test: Cure of MS-kit with 4-dodecylbenzenesulfonic acid (comparative example 1a-b)
Assay type: physicochemical
Details: added instead of a tin-catalyst
Procedure: (§1) All ingredients except the Tegokat are added to a Hauschild cup and mixed in a Hauschild mixer for 60 seconds. Than the catalyst is added and mixed for another 30 seconds. Additionally UV- and light stabilizers, pigments etc. may be added in the first or second step.

Structure (SMILES) | cure
CCCCCCCCCCCCc1ccc(S(=O)(=O)O)cc1 [4-dodecylbenzenesulfonic acid] | no cure was observed

Same assay, conditions: after addition of a tin catalyst

Structure (SMILES) | cure
CCCCCCCCCCCCc1ccc(S(=O)(=O)O)cc1 [4-dodecylbenzenesulfonic acid] | behaved as without 4-dodecylbenzenesulfonic acid

Test: not given
Details: not given
Procedure: as §1
In fig.6 the degradation time in hours at 150°C is plotted versus the time in days prior to cure at 40°C. On the horizontal axis the time the sealant was stored at 40°C before cure in days is given, showing the storage stability of the anti-oxidant, and on the vertical axis the time in hours to degradation at 150°C, showing the effectiveness of the anti-oxidant after storage of the sealant. This test may be seen as a stress test for both storage stability of the sealant as subsequent oxidation stability. The line represents the present situation using Irganox 1135 commonly applied in the sealant.
In fig. 8 a similar test as in fig. 6 is performed with the above mentioned anti-oxidants.
At present samples have been tested of a commercial STP (or SMP) sealant containing Irganox 1035, Irganox 1330 and a mixture thereof. The total antioxidant content of all samples is 4 g/kg STP polymer. The samples are stored in an oven at 40°C. The degradation times are determined at 150°C as a function of storage time. Furthermore, tensile tests are performed directly and after dumbbells used in said tests are exposed to 100°C for 1000 hours. This is done on freshly prepared sealants and sealants that have been stored at 40°C for 4 weeks.

Structure (SMILES) | Degradation time after 7 days @ 40°C [h] | Initial degradation Time [h] | Relative decrease degradation time after 7days @ 40°C [%]
Cc1cc(CCC(=O)OCCOCCOCCOC(=O)CCc2cc(C)c(O)c(C(C)(C)C)c2)cc(C(C)(C)C)c1O [Irganox 245] | 2 | 9 | 22
CCCCCCCCSc1nc(Nc2cc(C(C)(C)C)c(O)c(C(C)(C)C)c2)nc(SCCCCCCCC)n1 [Irganox 565] | 9 | 16 | 56
CC(C)(C)c1cc(CCC(=O)OCC(COC(=O)CCc2cc(C(C)(C)C)c(O)c(C(C)(C)C)c2)(COC(=O)CCc2cc(C(C)(C)C)c(O)c(C(C)(C)C)c2)COC(=O)CCc2cc(C(C)(C)C)c(O)c(C(C)(C)C)c2)cc(C(C)(C)C)c1O [Irganox 1010] | 3 | 24 | 13
Cc1c(Cc2cc(C(C)(C)C)c(O)c(C(C)(C)C)c2)c(C)c(Cc2cc(C(C)(C)C)c(O)c(C(C)(C)C)c2)c(C)c1Cc1cc(C(C)(C)C)c(O)c(C(C)(C)C)c1 [Irganox 1330] | 21 | 34 | 62
CC(C)(C)c1cc(CCC(=O)OCCSCCOC(=O)CCc2cc(C(C)(C)C)c(O)c(C(C)(C)C)c2)cc(C(C)(C)C)c1O [Irganox 1035] | 2 | 16 | 13
